Reference: the supplement of paper PMC12076712

Legend:
Experiment in all cases: pIC50, kinobeads binding competition
[1] = molecular target: AKT2 (UniProt P31751)
How it was run: (§1)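 Live Jurkat cells were treated with nine compound concentrations (top 30 μM, 1:4 steps) or DMSO for 60 min at 37 °C before lysis. Alternatively, Jurkat lysate or a 1:1:1:1 HEK293/K-562/HepG2/placenta lysate mix was incubated with nine concentrations (top 30 μM, 1:5 steps) for 60 min at 4 °C. Kinobeads-bound proteins were digested and quantified by TMT10 LC-MS/MS. pIC50 came from logistic dose-response fits (R drc package) of fold changes versus DMSO, in biological duplicates.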

[2] = molecular target: AXL (UniProt P30530); details: cell material: Lysate mix
How it was run: as §1

[3] = molecular target: CLK4 (UniProt Q9HAZ1)
How it was run: as §1

[4] = molecular target: T1, LATS2 (UniProt Q9NRM7)
T1 sequence (whole entry): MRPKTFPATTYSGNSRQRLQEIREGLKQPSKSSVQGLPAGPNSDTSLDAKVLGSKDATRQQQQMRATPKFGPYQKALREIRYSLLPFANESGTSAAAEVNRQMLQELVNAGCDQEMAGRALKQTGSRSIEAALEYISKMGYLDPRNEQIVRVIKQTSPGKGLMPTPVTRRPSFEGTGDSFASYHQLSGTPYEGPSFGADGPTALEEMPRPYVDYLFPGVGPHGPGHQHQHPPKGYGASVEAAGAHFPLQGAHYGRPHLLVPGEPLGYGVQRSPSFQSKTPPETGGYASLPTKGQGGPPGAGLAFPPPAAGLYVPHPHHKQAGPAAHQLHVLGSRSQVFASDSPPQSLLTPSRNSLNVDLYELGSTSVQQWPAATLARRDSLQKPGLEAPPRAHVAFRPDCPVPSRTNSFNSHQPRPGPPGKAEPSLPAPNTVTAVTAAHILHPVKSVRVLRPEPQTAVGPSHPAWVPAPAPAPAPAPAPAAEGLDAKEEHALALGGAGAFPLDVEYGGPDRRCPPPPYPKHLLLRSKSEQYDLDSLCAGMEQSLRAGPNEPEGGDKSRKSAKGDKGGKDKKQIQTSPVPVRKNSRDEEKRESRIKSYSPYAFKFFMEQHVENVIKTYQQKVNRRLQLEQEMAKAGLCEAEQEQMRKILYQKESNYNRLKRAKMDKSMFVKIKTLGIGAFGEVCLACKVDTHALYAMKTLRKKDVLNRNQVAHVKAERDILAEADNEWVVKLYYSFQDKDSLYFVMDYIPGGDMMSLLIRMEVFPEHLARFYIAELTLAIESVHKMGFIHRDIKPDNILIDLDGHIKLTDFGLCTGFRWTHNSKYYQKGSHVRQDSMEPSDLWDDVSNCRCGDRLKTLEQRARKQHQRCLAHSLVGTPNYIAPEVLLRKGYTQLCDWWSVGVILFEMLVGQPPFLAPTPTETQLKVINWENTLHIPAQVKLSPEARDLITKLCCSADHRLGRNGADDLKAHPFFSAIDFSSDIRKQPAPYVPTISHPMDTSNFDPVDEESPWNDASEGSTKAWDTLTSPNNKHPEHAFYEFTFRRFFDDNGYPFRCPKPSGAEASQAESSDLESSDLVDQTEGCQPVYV
How it was run: as §1

[5] = molecular target: LIMK2 (UniProt P53671)
How it was run: as §1

[6] = molecular target: RPS6KA4 (UniProt O75676)
How it was run: as §1

[7] = molecular target: TNIK (UniProt Q9UKE5)
How it was run: as §1

[8] = molecular target: UniProt P45984
How it was run: as §1

[9] = molecular target: UniProt Q16512
How it was run: as §1

[10] = molecular target: UniProt Q9P289
How it was run: as §1

[11] = molecular target: T2, UniProt Q9UQB9
T2 sequence (whole entry): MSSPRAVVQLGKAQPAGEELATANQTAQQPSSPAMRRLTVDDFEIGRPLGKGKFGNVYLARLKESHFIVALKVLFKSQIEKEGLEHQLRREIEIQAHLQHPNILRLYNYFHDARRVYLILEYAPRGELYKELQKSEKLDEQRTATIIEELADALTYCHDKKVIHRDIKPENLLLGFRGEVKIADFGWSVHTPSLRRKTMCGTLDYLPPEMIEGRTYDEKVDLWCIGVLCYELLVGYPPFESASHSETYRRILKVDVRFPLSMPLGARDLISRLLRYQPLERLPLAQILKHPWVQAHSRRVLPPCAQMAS
How it was run: as §1

[12] = molecular target: UniProt Q9Y2H1
How it was run: as §1

[13] = molecular target: BTK (UniProt Q06187); details: cell material: Lysate mix
How it was run: as §1

[14] = molecular target: MET (UniProt P08581); details: cell material: Lysate mix
How it was run: as §1

[15] = molecular target: UniProt Q04912; details: cell material: Lysate mix
How it was run: as §1

UniProt Q16512, sequence (Q16512 whole entry, looked up): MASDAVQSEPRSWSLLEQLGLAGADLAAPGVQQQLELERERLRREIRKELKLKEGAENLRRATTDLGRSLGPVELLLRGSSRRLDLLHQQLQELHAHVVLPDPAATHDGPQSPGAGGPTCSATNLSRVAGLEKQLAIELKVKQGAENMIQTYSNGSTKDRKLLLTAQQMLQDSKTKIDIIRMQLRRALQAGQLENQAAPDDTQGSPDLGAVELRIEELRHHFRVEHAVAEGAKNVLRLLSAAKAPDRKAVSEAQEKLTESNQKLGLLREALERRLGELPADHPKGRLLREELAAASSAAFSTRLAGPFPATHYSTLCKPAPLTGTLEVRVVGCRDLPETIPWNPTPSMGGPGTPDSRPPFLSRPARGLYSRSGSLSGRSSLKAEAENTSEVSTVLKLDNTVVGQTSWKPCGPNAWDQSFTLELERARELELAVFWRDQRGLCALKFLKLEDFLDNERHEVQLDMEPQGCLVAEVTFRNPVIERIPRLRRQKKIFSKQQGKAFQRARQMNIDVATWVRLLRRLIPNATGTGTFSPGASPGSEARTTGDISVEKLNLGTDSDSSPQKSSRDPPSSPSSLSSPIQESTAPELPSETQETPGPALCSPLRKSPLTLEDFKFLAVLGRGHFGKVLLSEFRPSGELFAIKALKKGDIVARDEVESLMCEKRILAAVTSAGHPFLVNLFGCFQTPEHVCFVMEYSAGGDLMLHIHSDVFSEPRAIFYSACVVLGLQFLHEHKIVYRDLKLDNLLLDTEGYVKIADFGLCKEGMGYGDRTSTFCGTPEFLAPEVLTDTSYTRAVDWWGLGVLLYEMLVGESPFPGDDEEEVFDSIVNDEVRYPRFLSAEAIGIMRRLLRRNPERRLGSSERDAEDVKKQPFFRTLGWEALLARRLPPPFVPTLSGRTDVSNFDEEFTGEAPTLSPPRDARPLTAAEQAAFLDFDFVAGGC
CLK4, sequence (Q9HAZ1 whole entry, looked up): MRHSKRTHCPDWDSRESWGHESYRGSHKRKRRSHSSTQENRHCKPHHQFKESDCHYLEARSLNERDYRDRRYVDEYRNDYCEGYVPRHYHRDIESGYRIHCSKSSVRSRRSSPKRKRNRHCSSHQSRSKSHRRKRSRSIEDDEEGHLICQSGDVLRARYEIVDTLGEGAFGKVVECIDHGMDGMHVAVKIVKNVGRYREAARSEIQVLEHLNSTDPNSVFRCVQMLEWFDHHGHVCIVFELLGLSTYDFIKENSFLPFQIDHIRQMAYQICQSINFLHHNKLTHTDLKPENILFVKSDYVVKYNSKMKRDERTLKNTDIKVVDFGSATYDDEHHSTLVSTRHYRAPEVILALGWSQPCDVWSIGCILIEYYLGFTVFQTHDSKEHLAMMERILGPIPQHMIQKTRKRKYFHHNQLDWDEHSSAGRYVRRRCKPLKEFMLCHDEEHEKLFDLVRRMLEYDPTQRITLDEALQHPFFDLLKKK
BTK, sequence (Q06187 whole entry): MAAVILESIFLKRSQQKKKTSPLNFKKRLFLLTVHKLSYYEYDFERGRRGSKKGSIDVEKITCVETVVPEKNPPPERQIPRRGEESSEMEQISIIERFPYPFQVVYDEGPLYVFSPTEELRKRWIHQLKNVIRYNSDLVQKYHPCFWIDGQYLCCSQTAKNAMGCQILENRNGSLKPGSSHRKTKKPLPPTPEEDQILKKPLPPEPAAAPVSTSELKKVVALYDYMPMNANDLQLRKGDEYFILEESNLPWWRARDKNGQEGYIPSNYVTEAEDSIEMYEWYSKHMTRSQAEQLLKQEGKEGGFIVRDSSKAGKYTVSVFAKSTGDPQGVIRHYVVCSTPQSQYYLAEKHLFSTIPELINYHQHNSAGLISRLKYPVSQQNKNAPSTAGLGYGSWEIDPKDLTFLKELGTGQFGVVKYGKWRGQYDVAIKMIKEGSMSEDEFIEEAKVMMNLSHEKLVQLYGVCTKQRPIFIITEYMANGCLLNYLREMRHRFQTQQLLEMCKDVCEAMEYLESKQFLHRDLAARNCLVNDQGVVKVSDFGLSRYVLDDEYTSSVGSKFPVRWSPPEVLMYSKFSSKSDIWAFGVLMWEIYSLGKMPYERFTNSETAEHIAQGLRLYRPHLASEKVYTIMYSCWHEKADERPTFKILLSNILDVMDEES
LIMK2, sequence (P53671 whole entry, looked up): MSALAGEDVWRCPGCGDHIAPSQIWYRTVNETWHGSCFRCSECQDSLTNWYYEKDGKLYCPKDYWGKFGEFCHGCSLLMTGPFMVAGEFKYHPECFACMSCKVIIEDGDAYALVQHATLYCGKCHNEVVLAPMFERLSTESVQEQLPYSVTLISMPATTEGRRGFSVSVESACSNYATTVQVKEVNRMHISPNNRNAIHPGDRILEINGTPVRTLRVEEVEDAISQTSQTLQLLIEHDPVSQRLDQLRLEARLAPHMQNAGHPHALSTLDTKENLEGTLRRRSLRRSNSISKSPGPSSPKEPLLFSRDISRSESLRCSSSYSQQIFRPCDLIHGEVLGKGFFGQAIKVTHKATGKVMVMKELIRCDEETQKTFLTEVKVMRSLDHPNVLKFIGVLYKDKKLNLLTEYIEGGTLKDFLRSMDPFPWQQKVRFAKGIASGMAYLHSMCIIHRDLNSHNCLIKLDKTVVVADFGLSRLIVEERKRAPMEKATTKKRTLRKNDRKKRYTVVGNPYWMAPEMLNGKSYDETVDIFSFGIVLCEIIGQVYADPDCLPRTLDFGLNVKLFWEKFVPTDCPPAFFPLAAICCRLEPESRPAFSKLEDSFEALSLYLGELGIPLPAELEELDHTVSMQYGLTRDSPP
UniProt Q9Y2H1, sequence (Q9Y2H1 whole entry, looked up): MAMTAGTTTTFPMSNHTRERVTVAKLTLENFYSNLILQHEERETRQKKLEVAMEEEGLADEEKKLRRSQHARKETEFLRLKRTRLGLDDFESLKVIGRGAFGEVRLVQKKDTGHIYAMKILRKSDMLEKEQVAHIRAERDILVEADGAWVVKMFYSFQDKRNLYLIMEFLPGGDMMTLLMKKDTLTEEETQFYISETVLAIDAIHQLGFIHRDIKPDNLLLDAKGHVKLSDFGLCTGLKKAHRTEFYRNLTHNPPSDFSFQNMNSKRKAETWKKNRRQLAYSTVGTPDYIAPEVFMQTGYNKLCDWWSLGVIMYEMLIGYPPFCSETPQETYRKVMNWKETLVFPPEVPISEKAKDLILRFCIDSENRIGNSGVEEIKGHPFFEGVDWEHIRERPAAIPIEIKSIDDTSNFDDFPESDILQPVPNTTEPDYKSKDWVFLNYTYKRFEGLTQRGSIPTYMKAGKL
TNIK, sequence (Q9UKE5 whole entry, looked up): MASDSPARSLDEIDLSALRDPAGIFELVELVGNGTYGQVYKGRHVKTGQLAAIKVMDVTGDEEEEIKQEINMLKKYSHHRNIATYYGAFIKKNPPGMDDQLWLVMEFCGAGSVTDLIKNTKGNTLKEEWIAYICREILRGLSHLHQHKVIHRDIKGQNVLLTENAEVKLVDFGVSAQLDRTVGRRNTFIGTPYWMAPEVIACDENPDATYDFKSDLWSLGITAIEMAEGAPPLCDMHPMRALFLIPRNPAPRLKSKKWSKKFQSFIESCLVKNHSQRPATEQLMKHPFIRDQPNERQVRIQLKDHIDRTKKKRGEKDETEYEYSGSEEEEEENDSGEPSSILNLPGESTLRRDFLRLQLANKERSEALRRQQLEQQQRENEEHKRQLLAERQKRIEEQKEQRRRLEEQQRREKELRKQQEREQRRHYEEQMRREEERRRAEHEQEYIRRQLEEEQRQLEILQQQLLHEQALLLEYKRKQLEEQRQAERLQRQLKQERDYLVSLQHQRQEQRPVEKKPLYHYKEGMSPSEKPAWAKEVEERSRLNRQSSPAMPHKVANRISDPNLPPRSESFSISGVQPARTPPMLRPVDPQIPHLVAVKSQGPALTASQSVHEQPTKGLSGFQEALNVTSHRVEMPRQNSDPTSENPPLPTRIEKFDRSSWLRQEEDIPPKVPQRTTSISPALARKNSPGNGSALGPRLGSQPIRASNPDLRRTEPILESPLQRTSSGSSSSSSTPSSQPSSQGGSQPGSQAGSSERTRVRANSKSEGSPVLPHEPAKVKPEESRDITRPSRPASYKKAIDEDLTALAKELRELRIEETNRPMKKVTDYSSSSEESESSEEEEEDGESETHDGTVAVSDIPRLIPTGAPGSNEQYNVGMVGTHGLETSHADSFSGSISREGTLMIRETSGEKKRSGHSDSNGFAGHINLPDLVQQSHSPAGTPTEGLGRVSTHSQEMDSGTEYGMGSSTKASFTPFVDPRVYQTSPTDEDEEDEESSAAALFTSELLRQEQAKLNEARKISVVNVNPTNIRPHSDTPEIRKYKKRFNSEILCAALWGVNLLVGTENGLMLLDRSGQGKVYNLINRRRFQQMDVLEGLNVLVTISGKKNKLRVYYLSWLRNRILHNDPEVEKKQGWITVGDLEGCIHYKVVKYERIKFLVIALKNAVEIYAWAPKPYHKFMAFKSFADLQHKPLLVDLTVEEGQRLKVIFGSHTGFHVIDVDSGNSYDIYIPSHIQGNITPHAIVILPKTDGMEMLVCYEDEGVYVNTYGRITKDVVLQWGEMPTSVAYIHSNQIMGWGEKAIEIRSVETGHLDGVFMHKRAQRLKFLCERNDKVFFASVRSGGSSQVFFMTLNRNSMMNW
UniProt P45984, sequence (P45984 whole entry, looked up): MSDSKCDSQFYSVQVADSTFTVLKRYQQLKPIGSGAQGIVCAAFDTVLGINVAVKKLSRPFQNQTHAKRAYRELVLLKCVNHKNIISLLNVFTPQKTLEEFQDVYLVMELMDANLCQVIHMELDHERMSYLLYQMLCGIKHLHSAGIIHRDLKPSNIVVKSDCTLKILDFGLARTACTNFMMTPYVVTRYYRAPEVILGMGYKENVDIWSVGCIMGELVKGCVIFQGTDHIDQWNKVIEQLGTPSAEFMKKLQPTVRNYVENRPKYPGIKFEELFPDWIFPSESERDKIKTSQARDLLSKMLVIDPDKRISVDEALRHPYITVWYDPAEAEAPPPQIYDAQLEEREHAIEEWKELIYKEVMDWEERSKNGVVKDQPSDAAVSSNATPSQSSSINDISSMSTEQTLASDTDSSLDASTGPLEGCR

Structure (SMILES)	pIC50 ([1]; cell material: Jurkat cells)	pIC50 [2]	pIC50 ([3]; cell material: Jurkat cells)	pIC50 ([3]; cell material: Jurkat lysate)	pIC50 ([3]; cell material: Lysate mix)	pIC50 ([4]; cell material: Jurkat cells)	pIC50 ([4]; cell material: Lysate mix)	pIC50 ([5]; cell material: Jurkat cells)	pIC50 ([5]; cell material: Jurkat lysate)	pIC50 ([5]; cell material: Lysate mix)	pIC50 ([6]; cell material: Jurkat cells)	pIC50 ([6]; cell material: Jurkat lysate)	pIC50 ([6]; cell material: Lysate mix)	pIC50 ([7]; cell material: Jurkat lysate)	pIC50 ([7]; cell material: Lysate mix)	pIC50 ([8]; cell material: Jurkat cells)	pIC50 ([8]; cell material: Jurkat lysate)	pIC50 ([8]; cell material: Lysate mix)	pIC50 ([9]; cell material: Jurkat cells)	pIC50 ([9]; cell material: Jurkat lysate)	pIC50 ([9]; cell material: Lysate mix)	pIC50 ([10]; cell material: Jurkat cells)	pIC50 ([10]; cell material: Lysate mix)	pIC50 ([11]; cell material: Jurkat lysate)	pIC50 ([11]; cell material: Lysate mix)	pIC50 ([12]; cell material: Jurkat cells)	pIC50 ([12]; cell material: Jurkat lysate)	pIC50 [13]	pIC50 [14]	pIC50 [15]	pIC50 ([12]; cell material: Lysate mix)	pIC50 ([4]; cell material: Jurkat lysate)	pIC50 ([7]; cell material: Jurkat cells)	pIC50 ([10]; cell material: Jurkat lysate)	pIC50 ([1]; cell material: Lysate mix)
C#CCNC(=O)c1cc(Nc2cc(C3CC3)[nH]n2)nc(N2CCN(Cc3ccc(S(=O)(=O)F)cc3)CC2)n1	5.74	< 4.52	6.1	4.85	5.2	5.82	5.84	6.52	5.16	5.53	5.84	4.83	5.56	< 4.52	5.27	5.92	5.22	5.72	5.36	< 4.52	< 4.52	6.36	< 4.52	5.48	5.81	6.28	5.56	–	–	–	–	–	–	–	–
C#CCNC(=O)c1cc(Nc2cc(C)[nH]n2)nc(N2CCN(Cc3ccc(S(=O)(=O)F)cc3)CC2)n1	–	–	–	–	–	–	4.77	–	–	–	–	–	4.84	–	–	–	–	5.34	–	–	< 4.52	–	–	–	–	–	–	< 4.52	< 4.52	< 4.52	4.77	–	–	–	–
Cc1cc(Nc2cc(C(=O)NCCNC(=O)OC3CC/C=C/CCC3)nc(N3CCN(Cc4ccc(S(=O)(=O)F)cc4)CC3)n2)n[nH]1 (stereo not given)	–	–	–	–	< 4.52	–	< 4.52	–	–	< 4.52	–	–	< 4.52	–	< 4.52	–	–	–	–	–	< 4.52	–	< 4.52	–	4.7	–	–	< 4.52	< 4.52	< 4.52	< 4.52	–	–	–	–
O=C(NCCNC(=O)c1cc(Nc2cc(C3CC3)[nH]n2)nc(N2CCN(Cc3ccc(S(=O)(=O)F)cc3)CC2)n1)OC1CC/C=C/CCC1 (stereo not given)	< 4.52	4.72	–	< 4.52	< 4.52	5.54	< 4.52	6.33	< 4.52	< 4.52	5.8	< 4.52	< 4.52	< 4.52	< 4.52	5.7	< 4.52	–	–	< 4.52	< 4.52	–	< 4.52	–	4.88	5.79	–	< 4.52	< 4.52	< 4.52	< 4.52	< 4.52	5.6	< 4.52	–
CCNC(=O)c1cc(Nc2cc(C)[nH]n2)nc(N2CCN(Cc3ccc(S(=O)(=O)F)cc3)CC2)n1	–	4.74	–	–	< 4.52	–	–	–	–	4.62	–	–	–	–	< 4.52	–	–	5.2	–	–	< 4.52	–	–	–	5.64	–	–	< 4.52	< 4.52	4.54	< 4.52	–	–	–	–
CCNC(=O)c1cc(Nc2cc(C3CC3)[nH]n2)nc(N2CCN(Cc3ccc(S(=O)(=O)F)cc3)CC2)n1	–	–	–	–	5.05	–	5.31	–	–	5.38	–	–	5.34	–	–	–	–	5.62	–	–	–	–	–	–	5.26	–	–	–	4.92	< 4.52	–	–	–	–	< 4.52
